According to US12239620B2, “Methods to decrease triglyceride synthesis in the liver” (MediciNova, Inc., priority 2021, dated 2025):

Columns and labels:
Format in all cases: cell-based, human
CD36 = CD36 mRNA expression in HepG2 cells by qPCR; settings: 48 hours
Excerpt: FIG. 2 depicts the measurement of CD36 mRNA expression levels from HepG2 cells after treatment with one or more selected from arachidonic acid, T0901317, and MN-001. Y-axis: relative mRNA expression (arbitrary units) compared to a control.
(§1) The effect of MN-001 on the mRNA expression of molecules related to TG metabolism: (1) fatty acid translocase/CD36, which is involved in the uptake of ARA into hepatocytes in the liver, and (2) ABCG1, which plays a role in controlling tissue lipid levels by mediating transfer of cellular cholesterol to HDL, were also investigated by measuring extracted RNA from HepG2 cells and using real-time PCR. To this end, RNA was extracted from HepG2 cells (after treatment with one or more selected from 10 μM arachidonic acid (ARA), 1 μM T1317, and 10 μM MN-001 for 48 hours) and converted to cDNA.
After conversion to cDNA, the CD36 mRNA expression levels were measured by qPCR (FIG. 2). […] Saturated fatty acids (e.g., palmitic acid, stearic acid) and fructose induce adipogenic pathways and promote fat accumulation by increasing CD36 expression and modulating ChREBP, which regulates lipogenesis.

HepG2 cells = experiment: Intracellular triglyceride level in HepG2 cells after 48 hours incubation; settings: for increase in TG synthesis compared to vehicle: 10 μM ARA, 1 μM T1317
Description: FIG. 1 depicts the measurement of intracellular triglyceride level in HepG2 cells after 48 hours incubation with one or more selected from arachidonic acid, T0901317, and MN-001. Y-axis: Δ intracellular triglycerides (μg/mg/protein). HepG2 cells (derived from human hepatocellular carcinoma samples) were incubated with one or more selected from 10 μM arachidonic acid (ARA), 1 μM LXR agonist T0901317 (“T1317”), and 10 μM MN-001 for 48 hours. T1317 stimulates LXR-SREBP-1c ChREPB signal, increases triglyceride (TG) synthesis in liver and exacerbates fatty liver. The intracellular triglyceride level was measured after the treatment (FIG. 1).

ABCG1 = ABCG1 mRNA expression in HepG2 cells by qPCR; settings: 48 hours, 10 μM MN-001, 10 μM ARA
Excerpt: FIG. 3 depicts the measurement of ABCG1 mRNA expression levels from HepG2 cells after treatment with one or more selected from arachidonic acid, T0901317, and MN-001. Y-axis: relative mRNA expression (arbitrary units) compared to a control.
as §1
In addition, the ABCG1 mRNA expression levels were also measured by qPCR (FIG. 3). ABCG1 is known to be highly expressed in lipid-loaded macrophages and mediates cholesterol efflux to HDL. ABCG1 deficiency leads to profound intracellular cholesterol accumulation in macrophages and hepatocytes.

[1] = 10 μM MN-001 added to 10 μM ARA

CCCCC/C=C\C/C=C\C/C=C\C/C=C\CCCC(=O)O [ARA, arachidonic acid, reference compound]
increase of CD36 expression compared to control (CD36; 10 μM ARA): 1.8 fold
increase in TG synthesis compared to vehicle (HepG2 cells): 15.3 fold

CCCc1c(SCCCOc2ccc(C(C)=O)c(OCCCC(=O)O)c2CCC)ccc(C(C)=O)c1O [MN-001]
upregulation of ABCG1 expression compared to control (ABCG1): 17 fold
lowering of CD36 expression (CD36; 10 μM MN-001, in the absence of ARA): 39%
lowering of CD36 expression (CD36; 10 μM MN-001, in the presence of ARA (10 μM)): 43%
suppression of CD36 expression compared to ARA alone (CD36; [1]): 0.6 fold
downregulation of CD36 expression compared to control (CD36; 10 μM MN-001 alone): 0.6 fold
suppression of the increase in TG synthesis by T1317 (HepG2 cells; 10 μM MN-001 added to 1 μM T1317): 1.7 fold
suppression of the increase in TG synthesis by a combination of T1317 and ARA (HepG2 cells; 10 μM MN-001 added to 1 μM T1317 and 10 μM ARA): 3.7 fold
suppression of the increase in TG synthesis by ARA (HepG2 cells; [1]): 3.7 fold

O=S(=O)(c1ccccc1)N(CC(F)(F)F)c1ccc(C(O)(C(F)(F)F)C(F)(F)F)cc1 [T1317, reference compound]
increase in TG synthesis compared to vehicle (HepG2 cells): 3.8 fold
